Test results as given in ChEMBL document CHEMBL2202984, “16-morpholino quaternary ammonium steroidal derivatives as neuromuscular blocking agents: synthesis, biological evaluation and in silico probe of ligand-receptor interaction” (Eur J Med Chem, 2012).
Activity calls are given as the source filed them. The rule behind the calls is not given here.

What was measured:
[1] = (§1) Inhibition of nAChR-mediated twitch response in mouse hemidiaphragm
[2] = species: Mus musculus; test: as §1
[3] = species: Mus musculus; test: Inhibition of nAChR-mediated twitch response in mouse hemidiaphragm at IC90 in presence of neostigmine bromide

Structure (SMILES)	IC50 [1] [µM]	IC90 [2] [µM]	inhibition [3]
CC(=O)O[C@H]1[C@@H]([N+]2(C)CCOCC2)C[C@H]2[C@@H]3CC[C@H]4C[C@H]([N+](C)(C)C)CC[C@]4(C)[C@H]3CC[C@@]21C	17.4	–	–
C[C@]12CC[C@H]([N+]3(C)CCOCC3)C[C@@H]1CC[C@@H]1[C@@H]2CC[C@]2(C)[C@@H](O)[C@@H]([N+]3(C)CCOCC3)C[C@@H]12	38.9	–	–
CC(=O)O[C@H]1[C@@H]([N+]2(C)CCOCC2)C[C@H]2[C@@H]3CC[C@H]4C[C@@H]([N+]5(C)CCCC5)CC[C@]4(C)[C@H]3CC[C@@]21C	10.7	15.7	–
CC(=O)O[C@H]1[C@@H]([N+]2(C)CCOCC2)C[C@H]2[C@@H]3CC[C@H]4C[C@@H]([N+](C)(C)C)CC[C@]4(C)[C@H]3CC[C@@]21C	16.6	25	–
C[C@]12CC[C@H]([N+](C)(C)Cc3ccccc3)C[C@@H]1CC[C@@H]1[C@@H]2CC[C@]2(C)[C@@H](O)[C@@H]([N+]3(C)CCOCC3)C[C@@H]12	18.5	–	–
C=CC[N+]1([C@H]2C[C@H]3[C@@H]4CC[C@H]5C[C@H](O)[C@@H](N6CCOCC6)C[C@]5(C)[C@H]4CC[C@]3(C)[C@H]2OC(C)=O)CCCC1 [ROCURONIUM BROMIDE]	2.5	3.53	–
CC(=O)O[C@H]1[C@@H]([N+]2(C)CCOCC2)C[C@H]2[C@@H]3CC[C@H]4C[C@H]([N+]5(C)CCCC5)CC[C@]4(C)[C@H]3CC[C@@]21C	18.6	–	–
CC(=O)O[C@H]1[C@@H]([N+]2(C)CCOCC2)C[C@H]2[C@@H]3CC[C@H]4C[C@@H]([N+](C)(C)Cc5ccccc5)CC[C@]4(C)[C@H]3CC[C@@]21C	4.54	6.38	inactive
C[C@]12CC[C@H]([N+]3(C)CCCCC3)C[C@@H]1CC[C@@H]1[C@@H]2CC[C@]2(C)[C@@H](O)[C@@H]([N+]3(C)CCOCC3)C[C@@H]12	13.6	–	–
C[C@]12CC[C@H]([N+](C)(C)c3ccccc3)C[C@@H]1CC[C@@H]1[C@@H]2CC[C@]2(C)[C@@H](O)[C@@H]([N+]3(C)CCOCC3)C[C@@H]12	16.2	–	–
C[C@]12CC[C@H]([N+]3(C)CCCC3)C[C@@H]1CC[C@@H]1[C@@H]2CC[C@]2(C)[C@@H](O)[C@@H]([N+]3(C)CCOCC3)C[C@@H]12	27.6	–	–
CC(=O)O[C@H]1[C@@H]([N+]2(C)CCOCC2)C[C@H]2[C@@H]3CC[C@H]4C[C@H](N5CC[N+](C)(C)CC5)CC[C@]4(C)[C@H]3CC[C@@]21C	39.1	–	–
CC(=O)O[C@H]1[C@@H]([N+]2(C)CCOCC2)C[C@H]2[C@@H]3CC[C@H]4C[C@@H]([N+]5(C)CCOCC5)CC[C@]4(C)[C@H]3CC[C@@]21C	33.9	50.7	–
CC(=O)O[C@H]1[C@@H]([N+]2(C)CCOCC2)C[C@H]2[C@@H]3CC[C@H]4C[C@@H]([N+]5(C)CCCCC5)CC[C@]4(C)[C@H]3CC[C@@]21C	3.49	5.46	inactive
CC(=O)O[C@H]1CC[C@@]2(C)[C@@H](CC[C@@H]3[C@@H]2CC[C@@]2(C)[C@H]3C[C@H]([N+]3(C)CCOCC3)[C@@H]2OC(C)=O)C1	19.8	29.4	–
C[C@]12CC[C@H](N3CC[N+](C)(C)CC3)C[C@@H]1CC[C@@H]1[C@@H]2CC[C@]2(C)[C@@H](O)[C@@H]([N+]3(C)CCOCC3)C[C@@H]12	24.5	–	–
CC(=O)O[C@H]1[C@@H]([N+]2(C)CCOCC2)C[C@H]2[C@@H]3CC[C@H]4C[C@@H](N5CC[N+](C)(C)CC5)CC[C@]4(C)[C@H]3CC[C@@]21C	13.1	18.6	–
CC(=O)O[C@H]1[C@@H]([N+]2(C)CCOCC2)C[C@H]2[C@@H]3CC[C@H]4C[C@@H]([N+](C)(C)c5ccccc5)CC[C@]4(C)[C@H]3CC[C@@]21C	12.7	18.2	–
CC(=O)O[C@H]1C[C@@H]2CC[C@@H]3[C@H](CC[C@@]4(C)[C@H]3C[C@H]([N+]3(C)CCCCC3)[C@@H]4OC(C)=O)[C@@]2(C)C[C@@H]1N1CCCCC1 [VECURONIUM BROMIDE]	0.31	0.44	–
C[C@]12CC[C@H]([N+](C)(C)C)C[C@@H]1CC[C@@H]1[C@@H]2CC[C@]2(C)[C@@H](O)[C@@H]([N+]3(C)CCOCC3)C[C@@H]12	21.4	–	–
